Assay results as given in US20260198495A1, “BINARY INSECTICIDE COMPOSITION AND USE THEREOF” (SHENYANG SINOCHEM AGROCHEMICALS R & D CO., LTD., priority 2022, published 2026).
≈ marks a conversion by molar mass, not a printed value.

Tests used:
Assay type in all cases: in vivo
[1] = test system: 3-instar larvae of Ostrinia furnacnlis Guenee; test: Joint toxicity of I-72 + flubendiamide, Example 61, Table 61; settings: in Zea mays, 72 h
Experimental: Test target: 3-instar larvae of Ostrinia furnacnlis Guenee.
(§1) Preparation of the pesticide solution: according to different test requirements, the test samples were accurately weighed respectively with an electronic analytical balance. The technical pesticides were dissolved in acetone, and then diluted with 0.1% Tween 80 water into a series of pesticide solutions with a certain concentration gradient according to the experimental design dosage.
(§2) Experimental method: first, tender corn stems were selected and dipped in the prepared pesticide solution for 10 s in the order from low dosage to high dosage according to the experimental design. After natural air-drying in the shade, they were placed in a 9-cm-diameter Petri dish with filter paper, and uniform and healthy test insects were introduced, with 10 insects for each treatment and 3 replicates for each treatment. In addition, a blank control was set up.
(§3) The treated test materials were placed in an observation room, and the temperature, humidity and illumination of the observation room could be adjusted as needed. The number of dead and live insects was investigated 72 hours later. […] Then, the co-toxicity coefficient of each ratio was calculated using the Sun Y-P method to evaluate the mixing effect (the same as in Example 1).

[2] = test system: Myzus persicae (Sulzer) nymphs; test: Joint toxicity of I-72 + cyantraniliprole, Example 59, Table 59; settings: in Brassica oleracea, 48 h
Experimental: (§4) Test target: Myzus persicae (Sulzer) nymphs, a sensitive strain reared indoors.
as §1
(§5) Experimental method: first, cabbage leaves with uniform and consistent Myzus persicae (Sulzer) were selected, with about 30-40 insects on each leaf. Then, they were evenly sprayed with the pesticide solution in the order from low dosage to high dosage according to the experimental design, with 1.5 mL of the solution for each leaf and 3 replicates for each treatment. In addition, a blank control was set up.
as §3, with “48” for “72”

[3] = test system: adult Phyllotreta vittuta Fabr.; test: Joint toxicity of I-72 + cyantraniliprole, Example 63, Table 63; settings: 72 h
Experimental: (§6) Test target: adult Phyllotreta vittuta Fabr.
as §1
(§7) Experimental method: first, uniform and consistent potted cabbage seedlings were selected. Then, uniform spraying was performed with the pesticide solution in the order from low dosage to high dosage according to the experimental design. After air-drying in the shade, adult flea beetles were transferred onto the treated cabbage seedlings, and then glass covers were put on them, with about 30-40 adult flea beetles on each seedling and 3 replicates for each treatment. In addition, a blank control was set up.
as §3

[4] = test system: Thrips flavus Schrank nymphs; test: Joint toxicity of I-72 + tolfenpyrad, Example 62, Table 62; settings: in Solanum melongena, 48 h
Experimental: Test target: Thrips flavus Schrank nymphs.
as §1
Experimental method: first, eggplant seedlings with Thrips flavus Schrank were selected, and the base number was counted. Then, uniform spraying was performed with the pesticide solution in the order from low to high doses according to the experimental design, with 2 mL for each seedling and 3 replicates for each treatment. In addition, a blank control was set up.
as §3, with “48” for “72”

[5] = test system: Liriomyza sativae Blanchard larvae; test: Joint toxicity of I-72 + cyromazine, Example 55, Table 55; settings: in Phaseolus vulgaris
Experimental: Test target: Liriomyza sativae Blanchard larvae.
as §1
Experimental method: first, kidney bean seedlings with the Liriomyza sativae Blanchard larvae (the larvae had just invaded and formed mines) were selected. Spraying treatments were performed in the order from low dosage to high dosage according to the experimental design, with 3 replicates for each treatment. In addition, a blank control was set up.
as §3, with “After the larvae in the blank control group pupated, the numbers” for “The number”, “were then counted.” for “was investigated 72 hours later.”

[6] = test system: 2nd-instar larvae of Spodoptera exigua Hübner; test: Joint toxicity of I-72 + lufenuron, Example 54, Table 54; settings: in Brassica oleracea, foliar, 72 h
Experimental: (§8) Test target: 2nd-instar larvae of Spodoptera exigua Hübner.
as §1
as §2, with “cabbage leaves” for “tender corn stems”
as §3

[7] = test system: Nilaparvata lugens (Stal) nymphs; test: Joint toxicity of I-72 + buprofezin, Example 52, Table 52; settings: 72 h
Experimental: (§9) Test target: Nilaparvata lugens (Stal) nymphs, a sensitive strain reared indoors.
as §1
(§10) Experimental method: the activity of the mixture against the Nilaparvata lugens (Stal) nymphs was determined by adopting the potted-seedling spraying method. First, rice seedlings were planted in culture pots. Uniform spraying was performed with the pesticide solution in the order from low dosage to high dosage according to the experimental design, with 2 mL for each seedling. Then, Nilaparvata lugens nymphs of uniform size were transferred onto the rice seedlings, with 3 replicates for each treatment. In addition, a blank control was set up.
as §3, with “effect,” for “effect (the same”, “1.” for “1).”

[8] = test system: adult Phyllotreta vittuta Fabr.; test: Joint toxicity of I-72 + acetamiprid, Example 65, Table 65; settings: 72 h
Experimental: as §6, §1, §7
(§11) The treated test materials were placed in an observation room, and the temperature, humidity and illumination of the observation room could be adjusted as needed. The number of dead and live insects was investigated 72 hours later.

[9] = test system: Nilaparvata lugens (Stal) nymphs; test: Joint toxicity of I-72 + imidacloprid, Example 70, Table 70; settings: 72 h
Experimental: as §9, §1, §10, §3

[10] = test system: 3rd-instar larvae of Chilo suppressalis (Walker); test: Joint toxicity of I-72 + chlorantraniliprole, Example 57, Table 57; settings: in Oryza sativa, 72 h
Experimental: (§12) Test target: 3rd-instar larvae of Chilo suppressalis (Walker).
as §1
as §2, with “rice” for “corn”, “control (CK)” for “control”
as §3, with “effect,” for “effect (the same”, “1.” for “1).”

Aphis craccivora nymphs = test: whole plant or invertebrate; settings: in Vicia faba, 48 h
Experimental: Test target: Aphis craccivora nymphs, a sensitive strain reared indoors.
as §1
as §5, with “broad bean seedlings” for “cabbage leaves”, “Aphis craccivora” for “Myzus persicae (Sulzer)”, “seedling.” for “leaf.”
(§13) The treated test materials were placed in an observation room, and the temperature, humidity and illumination of the observation room could be adjusted as needed. The number of dead and live insects was investigated 48 hours later.

[11] = test system: Frankliniella occidentalis nymphs; test: whole plant or invertebrate; settings: in Phaseolus vulgaris, foliar, 48 h
Experimental: Test target: Frankliniella occidentalis nymphs.
as §1
as §2, with “first, kidney bean leaves” for “first, tender corn stems”, “with 20-30” for “with 10”
as §3, with “48” for “72”

[12] = test system: Lipaphis erysimi (Kaltenbach); test: Joint toxicity of I-72 + pyrethrin, Example 47, Table 47; settings: A = compound I-72, B = pyrethrin; cabbage leaf spraying; 48 hours
Experimental: Test target: Lipaphis erysimi (Kaltenbach).
as §1
as §5, with “Lipaphis erysimi (Kaltenbach)” for “Myzus persicae (Sulzer)”
as §3, with “48” for “72”

[13] = test system: Aphis gossypii Glover nymphs; test: Joint toxicity of I-72 + nitenpyram, Example 67, Table 67; settings: 48 h
Experimental: Test target: Aphis gossypii Glover nymphs, a sensitive strain reared indoors.
as §1
as §5, with “cotton” for “cabbage”, “Aphis gossypii” for “Myzus persicae (Sulzer)”, “mL” for “mL of the solution”
as §3, with “48” for “72”

[14] = test system: Myzus persicae (Sulzer) nymphs; test: Joint toxicity of I-72 + fenvalerate, Example 46, Table 46; settings: in Brassica oleracea, 48 h
Experimental: as §4, §1, §5
as §3, with “48” for “72”

[15] = test system: 3rd-instar larvae of Yponomeuta evonymallus (Linnaeus); test: Joint toxicity of I-72 + thiamethoxam, Example 66, Table 66; settings: A = compound I-72, B = thiamethoxam; leaf dipping; 72 hours
Experimental: Test target: 3rd-instar larvae of Yponomeuta evonymallus (Linnaeus).
as §1
as §2, with “Hylotelephium spectabile leaves” for “tender corn stems”
as §11

[16] = test system: 3rd-instar larvae of Chilo suppressalis (Walker); test: Joint toxicity of I-72 + methoxyfenozide, Example 53, Table 53; settings: in Oryza sativa, 72 h
Experimental: as §12, §1
as §2, with “rice” for “corn”
as §3

[17] = test system: 2nd-instar larvae of Plutella xylostella; test: Joint toxicity of I-72 + tetraniliprole, Example 58, Table 58; settings: A = compound I-72, B = tetraniliprole; cabbage leaf dipping; 72 hours
Experimental: Test target: 2nd-instar larvae of Plutella xylostella.
as §1
as §2, with “cabbage leaves” for “tender corn stems”
as §3

[18] = test system: 2nd-instar larvae of Mythimna separata; test: Joint toxicity of I-72 + hexaflumuron, Example 56, Table 56; settings: in Zea mays, foliar, 72 h
Experimental: Test target: 2nd-instar larvae of Mythimna separata.
as §1
as §2, with “first,” for “first, tender”, “leaves” for “stems”
as §3

[19] = test system: 2nd-instar larvae of Spodoptera exigua Hübner; test: whole plant or invertebrate; settings: A = compound I-72, B = tetrachlorantraniliprole; cabbage leaf dipping; 72 hours
Experimental: as §8, §1
as §2, with “cabbage leaves” for “tender corn stems”
as §11

[20] = test system: Myzus persicae (Sulzer) nymphs; test: whole plant or invertebrate; settings: in Brassica oleracea, 48 h
Experimental: as §4, §1, §5, §13

Cc1cc(C(F)(C(F)(F)F)C(F)(F)F)ccc1NC(=O)c1cccc(I)c1C(=O)NC(C)(C)CS(C)(=O)=O [flubendiamide]
LC50 [1]: 1.02 µg/mL

CNC(=O)c1cc(C#N)cc(C)c1NC(=O)c1cc(Br)nn1-c1ncccc1Cl [cyantraniliprole]
LC50 [2]: 1.18 µg/mL | LC50 [3]: 36.2 µg/mL

CCc1nn(C)c(C(=O)NCc2ccc(Oc3ccc(C)cc3)cc2)c1Cl [tolfenpyrad]
LC50 [4]: 28.6 µg/mL

Nc1nc(N)nc(NC2CC2)n1 [cyromazine]
LC50 [5]: 5.06 µg/mL

O=C(NC(=O)c1c(F)cccc1F)Nc1cc(Cl)c(OC(F)(F)C(F)C(F)(F)F)cc1Cl (stereo not drawn) [lufenuron]
LC50 [6]: 12.9 µg/mL

CC(C)N1C(=O)N(c2ccccc2)CS/C1=N\C(C)(C)C [buprofezin]
LC50 [7]: 1.98 µg/mL

C/C(=N\C#N)N(C)Cc1ccc(Cl)nc1 [acetamiprid]
LC50 [8]: 7.92 µg/mL

O=[N+]([O-])NC1=NCCN1Cc1ccc(Cl)nc1 [imidacloprid]
LC50 [9]: 4.9 µg/mL

CNC(=O)c1cc(Cl)cc(C)c1NC(=O)c1cc(Br)nn1-c1ncccc1Cl [chlorantraniliprole]
LC50 [10]: 1.2 µg/mL

CC(c1ccc(C(F)(F)F)nc1)S(C)(=O)=NC#N (stereo not drawn) [sulfoxaflor]
LC50 (Aphis craccivora nymphs): 0.197 µg/mL (≈ 0.709 µM)

CN/C(=N/CC1CCOC1)N[N+](=O)[O-] (stereo not drawn) [dinotefuran]
LC50 [11]: 75.3 µg/mL (≈ 372 µM)

pyrethrin
LC50 [12]: 55.3268 µg/mL

CCN(Cc1ccc(Cl)nc1)/C(=C/[N+](=O)[O-])NC [nitenpyram]
LC50 [13]: 0.384 µg/mL

CC(C)C(C(=O)OC(C#N)c1cccc(Oc2ccccc2)c1)c1ccc(Cl)cc1 (stereo not drawn) [fenvalerate]
LC50 [14]: 34.4 µg/mL

CN1COCN(Cc2cnc(Cl)s2)/C1=N\[N+](=O)[O-] [thiamethoxam]
LC50 [15]: 358.9351 µg/mL

COc1cccc(C(=O)NN(C(=O)c2cc(C)cc(C)c2)C(C)(C)C)c1C [methoxyfenozide]
LC50 [16]: 8.95 µg/mL

CNC(=O)c1cc(C#N)cc(C)c1NC(=O)c1cc(Cn2nnc(C(F)(F)F)n2)nn1-c1ncccc1Cl [tetraniliprole]
LC50 [17]: 0.0810 µg/mL

O=C(NC(=O)c1c(F)cccc1F)Nc1cc(Cl)c(OC(F)(F)C(F)F)c(Cl)c1 [hexaflumuron]
LC50 [18]: 5.57 µg/mL

CNC(=O)c1cc(Cl)cc(Cl)c1NC(=O)c1cc(Br)nn1-c1ncc(Cl)cc1Cl [tetrachlorantraniliprole]
LC50 [19]: 0.6491 µg/mL (≈ 1.21 µM)

CN/C(=N\[N+](=O)[O-])NCc1cnc(Cl)s1 [clothianidin]
LC50 [20]: 0.513 µg/mL (≈ 2.05 µM)
